Laboratory results taken from patent publication US10975056B2 (GlaxoSmithKline Intellectual Property Development Limited, priority 2016, dated 2021).
Several values for one entry are separate records, joined by “and”; a condition that tells them apart may be missing. Equal values may be shown once. Read-outs that look alike come from different tables or passages of the source.

Tests used:
DNMT1 = DNMT1 (Homo sapiens, UniProt P26358); test: DNMT1 biochemical activity, breaklight assay and/or SPA assay
Sequence of DNMT1 (P26358 whole entry, looked up): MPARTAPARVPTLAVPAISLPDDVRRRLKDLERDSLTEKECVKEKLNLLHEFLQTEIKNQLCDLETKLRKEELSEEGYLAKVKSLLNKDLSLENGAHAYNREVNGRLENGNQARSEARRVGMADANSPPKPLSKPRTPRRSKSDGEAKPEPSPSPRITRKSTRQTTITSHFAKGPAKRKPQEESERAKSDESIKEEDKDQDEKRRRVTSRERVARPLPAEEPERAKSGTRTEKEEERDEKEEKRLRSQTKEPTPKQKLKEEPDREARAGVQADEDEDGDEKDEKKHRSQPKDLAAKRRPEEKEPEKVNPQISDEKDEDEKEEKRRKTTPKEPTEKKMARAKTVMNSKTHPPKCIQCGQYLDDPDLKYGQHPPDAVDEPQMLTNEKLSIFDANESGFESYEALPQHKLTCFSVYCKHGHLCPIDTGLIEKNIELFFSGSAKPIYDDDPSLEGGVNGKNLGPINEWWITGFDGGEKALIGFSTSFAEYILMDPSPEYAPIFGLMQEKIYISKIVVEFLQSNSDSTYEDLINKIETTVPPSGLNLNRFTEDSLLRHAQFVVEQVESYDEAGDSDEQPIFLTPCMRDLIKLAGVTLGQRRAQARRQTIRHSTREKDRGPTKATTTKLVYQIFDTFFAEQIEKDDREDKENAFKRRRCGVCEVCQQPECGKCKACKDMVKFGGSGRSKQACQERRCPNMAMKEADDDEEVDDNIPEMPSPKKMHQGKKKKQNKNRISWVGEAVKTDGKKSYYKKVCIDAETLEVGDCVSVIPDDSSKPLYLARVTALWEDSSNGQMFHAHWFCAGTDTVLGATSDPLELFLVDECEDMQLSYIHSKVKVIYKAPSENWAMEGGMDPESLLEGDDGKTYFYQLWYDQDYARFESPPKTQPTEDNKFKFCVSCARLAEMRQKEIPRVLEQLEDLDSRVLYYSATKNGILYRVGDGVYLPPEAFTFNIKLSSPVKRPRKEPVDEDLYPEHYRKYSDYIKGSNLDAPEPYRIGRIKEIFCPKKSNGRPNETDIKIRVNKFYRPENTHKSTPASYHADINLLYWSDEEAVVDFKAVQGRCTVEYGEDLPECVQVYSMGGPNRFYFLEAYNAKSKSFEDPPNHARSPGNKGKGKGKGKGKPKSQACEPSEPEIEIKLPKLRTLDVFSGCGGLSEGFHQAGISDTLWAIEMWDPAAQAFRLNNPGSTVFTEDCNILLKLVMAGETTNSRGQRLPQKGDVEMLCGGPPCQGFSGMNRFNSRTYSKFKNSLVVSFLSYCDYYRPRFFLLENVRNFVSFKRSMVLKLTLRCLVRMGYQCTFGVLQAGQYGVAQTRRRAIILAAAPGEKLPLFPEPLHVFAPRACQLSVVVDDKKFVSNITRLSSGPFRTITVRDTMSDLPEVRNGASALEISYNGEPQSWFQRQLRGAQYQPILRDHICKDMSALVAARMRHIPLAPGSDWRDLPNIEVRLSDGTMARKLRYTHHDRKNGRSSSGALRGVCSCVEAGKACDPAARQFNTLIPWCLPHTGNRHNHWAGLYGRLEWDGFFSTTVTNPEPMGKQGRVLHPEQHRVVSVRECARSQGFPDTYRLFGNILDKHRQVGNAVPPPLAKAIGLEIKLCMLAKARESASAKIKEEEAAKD

[1] = system: erythroid progenitor cells (EPCs); test: Fetal hemoglobin (HbF) ELISA in day 7 erythroid progenitor cells; type: cell-based, human; details: Homo sapiens, Erythroid progenitor cell, HbF ELISA, day 7 EPCs, 5 days; read-out: EPC ELISA (pEC50 category) (converted);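 note: for fetal hemoglobin induction normalized to vehicle-treated cells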
Method in brief: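 CD34+-derived EPCs, 1,000 cells/well, rhEPO 3 U/mL; Compound A 22-pt series, […]; 5 d, 37° C, 5% CO2. Freeze-thaw lysis, anti-HbF capture + HRP anti-HbF, TMB, OD450. Normalized to DMSO wells.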

[2] = binned activity in either the breaklight or the SPA assay
[3] = binned activity in either the breaklight or the SPA assay, read-out: DNMT1 BioChemical (pIC50 category) (converted)

CCc1c(C#N)c(SC(C(N)=O)c2ccccc2)nc(N2CCC(N3C(=O)CCC3=O)CC2)c1C#N (centres unmarked) [Example 252, 2-((3,5-Dicyano-6-(4-(2,5-dioxopyrrolidin-1-yl)piperidin-1-yl)-4-ethylpyridin-2-yl)thio)-2-phenylacetamide]
DNMT1 BioChemical (pIC50 category) (DNMT1; [2]): D (Category D: ≥6.5)
EC50 [1]: < 316 nM

CCc1c(C#N)c(SC(C(N)=O)c2ccccc2)nc(N2CCC3(CC2)CNC(=O)O3)c1C#N (centres unmarked) [Example 256, 2-((3,5-Dicyano-4-ethyl6-(2-oxo-1-oxa-3,8-diazaspiro[4.5]decan-8-yl)pyridin-2-yl)thio)-2-phenylacetamide]
IC50 (DNMT1; [3]): 316 to 1000 nM
EC50 [1]: 1000 to 31600 nM

CCc1c(C#N)c(SC(C(N)=O)c2ccccc2)nc(N2CCC(O)(C(N)=O)CC2)c1C#N (centres unmarked) [Example 258, 1-(6-((2-Amino-2-oxo-1-phenylethyl)thio)-3,5-dicyano-4-ethylpyridin-2-yl)-4-hydroxy piperidine-4-carboxamide]
IC50 (DNMT1; [3]): 316 to 1000 nM
EC50 [1]: 1000 to 31600 nM

CCc1c(C#N)c(SC(C(N)=O)c2ccccc2)nc(N2CC(OC(N)=O)C2)c1C#N (centres unmarked) [Example 259, 1-(6-((2-Amino-2-oxo-1-phenylethylthio-3,5-dicyano-4-ethylpyridin-2-yl)azetidin-3-yl carbamate]
DNMT1 BioChemical (pIC50 category) (DNMT1; [2]): D (Category D: ≥6.5)
EC50 [1]: 316 to 1000 nM

CCc1c(C#N)c(SC(C(N)=O)c2ccccc2)nc(N2CCC(N3C(=O)COC3=O)CC2)c1C#N (centres unmarked) [Example 260, 2-((3,5-Dicyano-6-(4-(2,4-dioxooxazolidin-3-yl)piperidin-1-yl)-4-ethylpyridin-2-yl)thio)-2-phenylacetamide]
IC50 (DNMT1; [3]): 316 to 1000 nM
EC50 [1]: 1000 to 31600 nM

CCc1c(C#N)c(SC(C(N)=O)c2ccccc2)nc(N(C)CC(C)(O)C(N)=O)c1C#N (centres unmarked) [Example 261, 3-((6-((2-Amino-2-oxo-1-phenylethyl)thio)-3,5-dicyano-4-ethylpyridin-2-yl)(methyl)amino)-2-hydroxy-2-methylpropanamide]
IC50 (DNMT1; [3]): 316 to 1000 nM
EC50 [1]: 1000 to 31600 nM

CCc1c(C#N)c(SC(C(N)=O)c2ccccc2)nc(N2CC(CO)C2)c1C#N (centres unmarked) [Example 262, 2-((3,5-Dicyano-4-ethyl-6-(3-(hydroxymethyl)azetidin-1-yl)pyridin-2-yl)thio)-2-phenylacetamide]
DNMT1 BioChemical (pIC50 category) (DNMT1; [2]): D (Category D: ≥6.5)
EC50 [1]: 1000 to 31600 nM

CCc1c(C#N)c(SC(C(N)=O)c2ccsc2)nc(N2CCNCC2)c1C#N (centres unmarked) [Example 263, 2-(3,5-Dicyano-4-ethyl-6-(piperazin-1-yl)pyridin-2-ylthio)-2-(thiophen-3-yl)acetamide]
IC50 (DNMT1; [3]): 316 to 1000 nM
EC50 [1]: 316 to 1000 nM

CCc1c(C#N)c(SCc2ccc(CNC(C)=O)cc2)nc(N2CCC(OCCOC(=O)[C@@H](N)C(C)C)CC2)c1C#N [Example 264, (S)-2-((1-(6-((4-(Acetamidomethyl)benzyl)thio)-3,5-dicyano-4-ethylpyridin-2-yl)piperidin-4-yl)oxy)ethyl 2-amino-3-methylbutanoate]
IC50 (DNMT1; [3]): 1000 to 31600 nM
EC50 [1]: > 31600 nM

CCc1c(C#N)c(SC(C(N)=O)c2cncc(C)c2)nc(N2CCCN(C)CC2)c1C#N (centres unmarked) [Example 266]
IC50 (DNMT1; [3]): 1000 to 31600 nM
IC50 (DNMT1; breaklight assay and/or SPA assay, repeated experimental runs, read-out: average pIC50 against DNMT1 (converted)): ≥ 1000 nM and 2000 nM
EC50 [1]: 316 to 1000 nM

CCc1c(C#N)c(SCc2ccc(CNC(C)=O)cc2)nc(N(C)CCOC(=O)[C@@H](N)C(C)C)c1C#N [Example 267]
IC50 (DNMT1; [3]): 1000 to 31600 nM
EC50 [1]: 1000 to 31600 nM

CCc1c(C#N)c(SCc2ccc(CNC(=O)CN)cc2)nc(N(C)C)c1C#N [Example 268, 2-Amino-N-(4-(((3,5-dicyano-6-(dimethylamino)-4-ethylpyridin-2-yl)thio)methyl)benzyl)acetamide]
IC50 (DNMT1; [3]): 1000 to 31600 nM
EC50 [1]: 1000 to 31600 nM

CCc1c(C#N)c(SCc2ccc(CN3CCCC3=O)cc2)nc(N2CCCN(C)CC2)c1C#N [Example 269, 4-Ethyl-2-(4-methyl-1,4-diazepan-1-yl)-6-((4-((2-oxopyrrolidin-1-yl)methyl)benzyl)thio)pyridine-3,5-dicarbonitrile]
IC50 (DNMT1; [3]): 1000 to 31600 nM
EC50 [1]: 1000 to 31600 nM

CCc1c(C#N)c(SC(C(N)=O)c2ccccc2)nc(N2CCC(N3CCC(N)C3=O)CC2)c1C#N (centres unmarked) [Example 270]
DNMT1 BioChemical (pIC50 category) (DNMT1; [2]): D (Category D: ≥6.5)
EC50 [1]: 1000 to 31600 nM
